Experiments:
[1] = final concentration 0.1 to 1 μM, within 24 h at 37° C.
[2] = system: tet-dependent GFP construct in organotypic hippocampal Müller cultures; experiment: Photoactivation of organotypic hippocampal Müller cultures (tet-dependent GFP transgene); format: cell-based, rat or mouse; conditions: 1.5 μM, optical fiber 200 μm, irradiated three times for 2 min with an interval of 1 hour
Protocol: FIG. 5 depicts a modified assay to test photoactivation in tissues, exemplified again by the use of organotypic hippocampal Müller cultures. […] To determine the maximal level of GFP expression that is possible with this approach, unmodified doxycycline was added in saturating concentrations (2 μM). […] The bright-field image on the right allows normal visualization of the culture (FIG. 5b).
FIG. 6: In a new set of experiments, photoactivation was done by using thin optical fibers (200 μm) for irradiation with the UV light coming from a Xenon arc lamp. The UV beam could be positioned with the help of a recording electrode that was aligned to be in the center of the circular irradiation area. About half of the culture was irradiated with this arrangement. The position of the electrode is indicated by the red dot. The culture was incubated with 1.5 μM caged doxycycline one hour prior to irradiation. Cultures were irradiated three times for 2 min with an interval of 1 hour. […] FIG. 6b indicates the electrode position relative to the whole culture.

[3] = system: tet-dependent chloramphenicol transferase (CAT) construct in organotypic hippocampal Müller cultures; experiment: Photoactivation of organotypic hippocampal Müller cultures (tet-dependent CAT transgene, immunohistochemistry); format: cell-based, rat or mouse
Protocol: FIG. 3 depicts a second assay to test photoactivation in tissues, exemplified by the use of organotypic hippocampal Müller cultures. […] After administration of caged doxycycline to the cells by adding it to the medium and subsequent photoactivation, CAT expression was assessed immuno-histochemically. […] CAT expression in the irradiated slice is mainly seen in cells at the border of the slice where cells become infected with viruses much more rapidly than in the center.
FIG. 4 illustrates the result of a further experiment performed by the present inventors. That is, in order to test if photoactivated gene expression can be used to induce gene expression in a locally restricted manner, adenovirus-infected Müller cultures were irradiated only in one half of the slice. […] Again, fluorescence is mostly seen at the slice boundary where the virus most readily infects cells of the culture. Thus, photoactivated gene expression provides the researcher with excellent spatial control over gene expression.
Mouse or rat hippocampal Müller cultures were prepared according to standard procedures from P5-7 animals. […] Following overnight incubation, 0.15 μM caged doxycycline was added to the medium, incubated for 1 h, and slices or selected regions of slices were irradiated for 10 sec with an upright fluorescence microscope using an appropriate filter (XF3000, OMEGA OPTICAL). Following overnight incubation, CAT fluorescence was detected immunohistochemically with a polyclonal anti-CAT antibody (Sigma).

[4] = system: CHO cells expressing the fusion protein and containing a tetracycline-dependent EGFP construct; experiment: Photoactivation of CHO cells (EGFP reporter); format: cell-based
Protocol: CHO cells mentioned above (that is, cells expressing the fusion protein^3 and containing a tetracycline-dependent EGFP) were used as a simple cell culture assay were propagated and plated according to standard cell culture procedures in Ham's F-12 medium. Cells were plated in 35 mm dishes with a glass bottom from Mattek. Two days after plating, cells were overlaid with 1% low-gelling agarose in Ham's F-12 containing 1 mM Na-butyrate and 0.3 μM caged doxycycline. Subsequently, a subset of cells was locally irradiated with a hand-held 6W UV lamp (365 nm) for 30 sec. Following overnight incubation, EGFP expression was assessed with a fluorescence microscope.

## 1-(4,5-dimethoxy-2-nitrophenyl)-ethyl-caged doxycycline [DMNPE-caged doxycycline]
[1]
  Spontaneous decomposition under incubation conditions: about 10%
[2]
  GFP expression after local UV irradiation: GFP positive cells that are within the circular irradiation area
[3]; no irradiation
  CAT expression, unirradiated control slice: did not display any CAT expression
[3]; single pulse of UV irradiation, 0.15 μM caged doxycycline
  CAT expression, irradiated slice: CAT expression in a few cells

## COc1cc(C(C)O[C@]23C(=O)C(C(N)=O)=C(O)[C@H](N(C)C)[C@H]2[C@H](O)[C@@H]2C(=C3O)C(=O)c3c(O)cccc3[C@H]2C)c([N+](=O)[O-])cc1OC (stereo partly shown) [DMNPE-caged doxycycline, 1-(4,5-dimethoxy-2-nitrophenyl)-ethyl-caged doxycycline]
[4]; CHO cells incubated with caged compound (0.3 μM), UV 365 nm 30 sec, overnight incubation
  EGFP fluorescence, irradiated cells: widespread EGFP fluorescence
[4]; cells in the same dish that were not irradiated
  EGFP fluorescence, cells not irradiated: did not fluoresce
[3]; irradiated CHO cells or organotypic hippocampal Müller cultures
  Local expression of genes/transgenes on irradiation: specific, time-dependent, and local expression of genes/transgenes
